Structures can show the parent of a compound that is named as a salt.

The subject of assay [1] is L6-myotubes. Kind of assay: Measurement of intracellular cAMP levels in differentiated L6 cells. The settings on record: Rattus norvegicus, 0.25 h, agonist final concentration 1×10^−5 M, 15 min, alpha screen cAMP kit, read-out: Biological example 2: intracellular cAMP levels, activity compared to that of isoproterenol. The format is cell-based. As to the method: (§1) L6-myoblasts were grown in Dulbecco's Modified Eagle's Medium (DMEM) containing 1 g/L glucose supplemented with 10% fetal bovine serum, 2 mM L-Glutamine, 50 U/mL penicillin, 50 μg/mL streptomycin and 10 mM HEPES. Cells were plated at 1×10^5 cells per mL in 24-well plates. After reaching 90% confluence the cells were grown in medium containing 2% FBS for 7 days where upon cells differentiated into myotubes.
Differentiated cells were serum-starved overnight and stimulated with an agonist, final concentration 1×10^−5 M, for 15 min in stimulation buffer (HBSS supplemented with 1% BSA, 5 mM HEPES and 1 mM IBMX, pH 7.4). The medium was aspirated and 100 μL of 95% EtOH was added to each well of the 24-well plate and cells were kept at −20° C. overnight. The EtOH was allowed to evaporate and 500 μL of lysis buffer (1% BSA, 5 mM HEPES and 0.3% Tween-20, pH 7.4) was added to each well. The plate was kept at −80° C. for 30 min and then at −20° C. until the day of detection when the samples were thawed. Intracellular cAMP levels were detected using an alpha screen cAMP kit (6760635D from Perkin Elmer). The activity for each compound is compared to that of isoproterenol.
(In general: Cyclic AMP is a second messenger, typically raised through Gs and lowered through Gi signalling.)

The test system of assay [2] is L6-myotubes. Kind of assay: Glucose uptake (3H-2-deoxyglucose) in differentiated L6-myotubes. To be noted: agonist final concentration 1×10^−5 M, 3H-2-deoxyglucose uptake, read-out: Biological example 1: glucose uptake, activity compared to that of isoproterenol. The format is cell-based. How it is done:
as §1
Differentiated L6-myotubes were serum-starved overnight in medium containing 0.5% fatty-acid free BSA and stimulated with an agonist, with a final concentration of 1×10^−5 M. After 1 h 40 min the cells were washed with warm glucose free medium or PBS twice and another portion of agonist was added to the glucose free medium. After 20 min the cells were exposed to 50 nM ^3H-2-deoxyglucose for another 10 min before washed in ice cold glucose free medium or PBS three times and lysed in 400 μL/well 0.2 M NaOH for 1 h at 60° C. The cell lysate was mixed with 4 mL scintillation buffer (Emulsifier Safe, Perkin Elmer) and the radioactivity was detected in a β-counter (Tri-Carb 4810TR, Perkin Elmer). The activity for each compound is compared to that of isoproterenol.

Take `CC(=O)N1CCC(C)(NC[C@H](O)c2cccc(F)c2)CC1` [Example 5, (R)-1-(4-((2-(3-Fluorophenyl)-2-hydroxyethyl)amino)-4-methyl-piperidin-1-yl)ethan-1-one]: the Emax at 10 µM is below 25% in assay [1] and 25 to 50% in assay [2].

With `CC(=O)N[C@H]1CC[C@H](NC[C@H](O)c2cccc(F)c2)CC1` [Example 15, N-((trans)-4-(((R)-2-(3-Fluorophenyl)-2-hydroxyethyl)amino)-cyclohexyl)acetamide], the figures for the Emax at 10 µM in assay [1] and in assay [2] were below 25% and 25 to 50%, respectively. Taken in the same sequence, the figures for `CC(C)(C[C@H]1CC[C@@H](NC[C@H](O)c2cncc(F)c2)CC1)NS(C)(=O)=O` [Example 4, N-(1-((cis)-4-(((R)-2-(5-Fluoropyridin-3-yl)-2-hydroxyethyl)amino)-cyclohexyl)-2-methylpropan-2-yl)methanesulfonamide] were below 25% and 50 to 75%. Taken in the same sequence, the figures for `COC(=O)CN1CCC(C)(NC[C@H](O)c2cccc(F)c2)CC1` [Example 19, Methyl (R)-2-(4-((2-(3-fluorophenyl)-2-hydroxyethyl)amino)-4-methyl-piperidin-1-yl)acetate dihydrochloride] were above 75% and above 75%. The matching figures for `CCOC(=O)CO[C@H]1CC[C@H](NC[C@H](O)c2cccc(F)c2)CC1` [Example 9, Ethyl 2-(((trans)-4-(((R)-2-(3-fluorophenyl)-2-hydroxyethyl)amino)-cyclohexyl)oxy)acetate]: below 25% and 25 to 50%. Regarding `CC(=O)N[C@H]1CC[C@@H](NC[C@H](O)c2cccc(F)c2)CC1` [Example 11, N-((cis)-4-(((R)-2-(3-fluorophenyl)-2-hydroxyethyl)amino)-cyclohexyl)acetamide], the values for the Emax at 10 µM in assay [1] and in assay [2] were below 25% and 50 to 75%, respectively. As for `CC(=O)N[C@H]1CC[C@@H](NC[C@H](O)c2cncc(F)c2)CC1` [Example 12, N-((cis)-4-(((R)-2-(5-Fluoropyridin-3-yl)-2-hydroxyethyl)amino)-cyclohexyl)acetamide], the Emax at 10 µM in assay [1] is below 25%; in assay [2], above 75%. For `CCCCS(=O)(=O)N1CCC(C)(NC[C@H](O)c2cccc(F)c2)CC1` [Example 23, (R)-2-((1-(Butylsulfonyl)-4-methylpiperidin-4-yl)amino)-1-(3-fluoro-phenyl)ethan-1-ol acetate], the Emax at 10 µM in assay [1] was 25 to 50%; in assay [2], above 75%. Take `CC1(NC[C@H](O)c2cccc(F)c2)CCN(S(=O)(=O)CC(=O)O)CC1` [Example 22, (R)-2-((4-((2-(3-Fluorophenyl)-2-hydroxyethyl)amino)-4-methyl-piperidin-1-yl)sulfonyl)acetic acid]: the Emax at 10 µM was below 25% in assay [1] and above 75% in assay [2].

Turning to `O=C(O)CO[C@H]1CC[C@H](NC[C@H](O)c2cccc(F)c2)CC1` [Example 10, 2-(((trans)-4-(((R)-2-(3-Fluorophenyl)-2-hydroxyethyl)amino)-cyclohexyl)oxy)acetic acid], the Emax at 10 µM in assay [1] is below 25%; in assay [2], 25 to 50%. For the molecule `CC1(NC[C@H](O)c2cccc(F)c2)CCN(S(C)(=O)=O)CC1` [Example 6, (R)-1-(3-Fluorophenyl)-2-((4-methyl-1-(methylsulfonyl)piperidin-4-yl)-amino)ethan-1-ol], the values for the Emax at 10 µM in assay [1] and in assay [2] were below 25% and above 75%, respectively. Take `CN(C)C(=O)N1CCC(C)(NC[C@H](O)c2cccc(F)c2)CC1` [Example 24, (R)-4-((2-(3-Fluorophenyl)-2-hydroxyethyl)amino)-N,N,4-trimethyl-piperidine-1-carboxamide acetate]: the Emax at 10 µM in assay [2] is above 75%. As to `CC(=O)N[C@H]1CC[C@H](NC[C@H](O)c2cncc(F)c2)CC1` [Example 16, N-((trans)-4-(((R)-2-(5-Fluoropyridin-3-yl)-2-hydroxyethyl)amino)-cyclohexyl)acetamide], the Emax at 10 µM is below 25% in assay [1] and 25 to 50% in assay [2]. Take `CS(=O)(=O)N[C@H]1CC[C@H](NC[C@H](O)c2cncc(F)c2)CC1` [Example 18, N-((trans)-4-(((R)-2-(5-fluoropyridin-3-yl)-2-hydroxyethyl)amino)-cyclohexyl)methanesulfonamide]: the values for the Emax at 10 µM in assay [1] and in assay [2] were below 25% and 50 to 75%, respectively. `CC(C)(C[C@H]1CC[C@@H](NC[C@H](O)c2cccc(F)c2)CC1)NS(C)(=O)=O` [Example 2, N-(1-((cis)-4-(((R)-2-(3-fluorophenyl)-2-hydroxyethyl)amino)-cyclohexyl)-2-methylpropan-2-yl)methanesulfonamide]: the Emax at 10 µM in assay [1] and in assay [2] was below 25% throughout. Regarding `CC1(NC[C@H](O)c2cccc(F)c2)CCN(CC(=O)O)CC1` [Example 20, (R)-2-(4-((2-(3-Fluorophenyl)-2-hydroxyethyl)amino)-4-methyl-piperidin-1-yl)acetic acid acetate], the Emax at 10 µM is below 25% in assay [1] and 50 to 75% in assay [2]. On to `COC(=O)CS(=O)(=O)N1CCC(C)(NC[C@H](O)c2cccc(F)c2)CC1` [Example 21, Methyl (R)-2-((4-((2-(3-fluorophenyl)-2-hydroxyethyl)amino)-4-methylpiperidin-1-yl)sulfonyl)acetate hydrochloride], for which the Emax at 10 µM in assay [1] is 25 to 50%; in assay [2], above 75%. Turning to `CS(=O)(=O)N[C@H]1CC[C@@H](NC[C@H](O)c2cncc(F)c2)CC1` [Example 14, N-((cis)-4-(((R)-2-(5-Fluoropyridin-3-yl)-2-hydroxyethyl)amino)-cyclohexyl)methanesulfonamide], the Emax at 10 µM in assay [1] is below 25%; in assay [2], above 75%. Taken in the same sequence, the figures for `CC1(NC[C@H](O)c2cncc(F)c2)CCN(S(C)(=O)=O)CC1` [Example 8, (R)-1-(5-Fluoropyridin-3-yl)-2-((4-methyl-1-(methylsulfonyl)piperidin-4-yl)amino)ethan-1-ol dihydrochloride] were 25 to 50% and above 75%. As for `CS(=O)(=O)N[C@H]1CC[C@@H](NC[C@H](O)c2cccc(F)c2)CC1` [Example 13, N-((cis)-4-(((R)-2-(3-Fluorophenyl)-2-hydroxyethyl)amino)cyclohexyl)-methanesulfonamide hydrochloride], the values for the Emax at 10 µM in assay [1] and in assay [2] were below 25% and 50 to 75%, respectively.

`CC(=O)NC(C)(C)C[C@H]1CC[C@@H](NC[C@H](O)c2cccc(F)c2)CC1` [Example 1, N-(1-((cis)-4-(((R)-2-(3-Fluorophenyl)-2-hydroxyethyl)amino)-cyclohexyl)-2-methylpropan-2-yl)acetamide]: the Emax at 10 µM in assay [1] was below 25%; in assay [2], 50 to 75%. Taken in the same sequence, the figures for `CC(=O)N1CCC(C)(NC[C@H](O)c2cncc(F)c2)CC1` [Example 7, (R)-1-(4-((2-(5-Fluoropyridin-3-yl)-2-hydroxyethyl)amino)-4-methyl-piperidin-1-yl)ethan-1-one] were below 25% and 50 to 75%.

Turning to `CC(=O)NC(C)(C)C[C@H]1CC[C@@H](NC[C@H](O)c2cncc(F)c2)CC1` [Example 3, N-(1-((cis)-4-(((R)-2-(5-Fluoropyridin-3-yl)-2-hydroxyethyl)amino)-cyclohexyl)-2-methylpropan-2-yl)acetamide], the values for the Emax at 10 µM in assay [1] and in assay [2] were below 25% and above 75%, respectively. As for `CS(=O)(=O)N[C@H]1CC[C@H](NC[C@H](O)c2cccc(F)c2)CC1` [Example 17, N-((trans)-4-(((R)-2-(3-Fluorophenyl)-2-hydroxyethyl)amino)-cyclohexyl)methanesulfonamide], the Emax at 10 µM is below 25% in assay [1] and 50 to 75% in assay [2].

The values are drawn from patent US20260274785A1, “CYCLOHEXYL OR HETEROCYCLOALKYL BETA-HYDROXY ALKYL AMINES FOR USE IN THE TREATMENT OF HYPERGLYCAEMIA AND DISORDERS CHARACTERISED BY HYPERGLYCAEMIA” (ATROGI AB, priority 2023, published 2026).
